Paper PMC2360206 (British Journal of Cancer, 2006)
Where “and” joins values, the source holds several entries; their conditions need not be identical. Identical values can stand only once. Entries after “also recorded” stand apart in the source; their conditions may differ. Like-named read-outs stand apart in the source and are kept apart here.

Experiments:
[1] = system: Retinoblastoma phosphorylation and cyclin D1 levels in peripheral blood mononuclear cells; test: Pharmacodynamics in peripheral blood mononuclear cells (western blot); assay type: in vivo, human; settings: peripheral blood mononuclear cells of patients, first cycle
Experimental: Whole blood was collected from patients at selected time points into lithium–heparin Vacutainer® tubes (Vacutainer, BD, Franklin Lakes, NJ, USA). Each tube was inverted several times to ensure thorough mixing and then mixed with sterile 0.9% saline at a ratio of 1:1. This was then layered over ficol (Lymphoprep® Nycomed, Oslo, Norway) and centrifuged at 1200 r.p.m. (400 g equivalent) at 18°C for 30 min. The resulting mononuclear cell layer was then removed and resuspended in 0.9% NaCl. Cell pellets were obtained by centrifugation (600 g) and flash frozen in liquid nitrogen. Mononuclear cells were then stored at −70°C in labelled cryovials until further analysis.
Cell pellets were treated with lysis buffer (50 mM Tris–HCl, 150 mM NaCl, pH 7.5, 1% NP40, 2 mM PMSF, 10 μg ml^−1 aprotinin, 10 μg ml^−1 leupeptin, 1 mM activated sodium orthovanadate, 1 mM sodium fluoride and 10 mM β-glycerophosphate) for 30 min on ice. Samples (20–100 μg of protein) were heat-denatured in Laemmli sample buffer (10% glycerol, 5% β-mercaptoethanol, 2% sodium dodecyl sulphate (SDS), 62.5 mM Tris (pH 6.8), 0.05% bromphenol blue, final concentrations) and separated by SDS—polyacrylamide gel electrophoresis (PAGE) using pre-cast 10 or 15-well 20 or 10% Tris–glycine polyacrylamide gels (Invitrogen, Netherlands). […]

[2] = system: plasma proteins; parameters: method as in Vita et al, 2005; settings: primarily albumin; ref Vita et al, 2005; cited from earlier work
[3] = system: Cdk4; settings: background statement, no reference given; cited from earlier work
[4] = parameters: method as in Pierga et al, 2003; settings: for 5 days, twice-daily oral schedule; ref Pierga et al, 2003; cited from earlier work
[5] = 28 days treatment in rodents; no reference given; cited from earlier work
[6] = system: Urinary retinol binding protein; test: Urinary retinol-binding protein, marker of renal tubular damage; assay type: in vivo, human; settings: range 0.10–100.0
Experimental: In an attempt to understand further the pathogenesis of these biochemical toxicities, three patients were studied more intensively. Urinary retinol-binding protein (RBP), a marker of renal tubular damage was measured in conjunction with functional renal imaging (MAG3 renograms) to estimate renal blood flow pretreatment on days 3 and 14. […] This was associated with bilateral increases in renal parenchymal retention on day 3 on MAG3 scans, which reverted to normal by day 14 (see Figure 1). […] There were no consistent changes in urinary RBP in any of these patients (Table 3).

[7] = Phase I plasma pharmacokinetics in patients; assay type: in vivo, human; settings: for Cmax / half-life / AUC(0-inf) / AUC(0-t) / Tmax: human, plasma
Experimental: For PK analysis, blood samples (approximately 8 ml each) were collected in tubes with lithium heparin anticoagulant at the following time points: pre-dose and 0.5, 1, 1.5, 2, 4, 8, 12 (pre-second dose), 13, 14 and 24 h (pre-dose if day 2) after dosing on both days 1 and 7 of the first cycle. The samples were then centrifuged at 3000 r.p.m at 4°C for 10 min, the plasma transferred to 2 ml cryovials and frozen at −70°C until analysis.
Pharmacokinetic (PK) analysis was performed using the trapezoidal method and log-linear regression. The following parameters were determined either by calculation or observation: the observed maximal concentration (Cmax), the time of observed maximal concentration (Tmax), the area under the concentration–time curve calculated by the trapezoidal rule (time 0 to last sample with a quantifiable concentration (AUC (0−tz)) and extrapolated to infinity (AUC(0−∞)), the terminal rate constant, by log-linear regression (λz) and the terminal half-life from λz. The value of AUC(0−∞) was considered unreliable if the terminal area beyond the last quantified sample was greater than 20% of the total AUC(0−∞). Pharmacokinetic (PK) data analysis was carried out using a noncompartmental analysis model with the aid of Kinetica (Innaphase Limited, Amersham, UK).

[8] = po, 100 mg, Day 1, 100 mg b.i.d. p.o. (n=3), mean, course 1
[9] = po, 100 mg, Day 1, 100 mg b.i.d. p.o. (n=3), median, course 1
[10] = po, 100 mg, Day 7, 100 mg b.i.d. p.o. (n=3), mean, course 1
[11] = po, 100 mg, Day 7, 100 mg b.i.d. p.o. (n=3), median, course 1
[12] = po, 200 mg, Day 1, 200 mg b.i.d. p.o. (n=6), mean, course 1
[13] = po, 200 mg, Day 1, 200 mg b.i.d. p.o. (n=6), median, course 1
[14] = po, 200 mg, Day 7, 200 mg b.i.d. p.o. (n=6), mean, course 1
[15] = po, 200 mg, Day 7, 200 mg b.i.d. p.o. (n=6), median, course 1
[16] = po, 800 mg, Day 1, 800 mg b.i.d. p.o. (n=12), mean, course 1
[17] = po, 800 mg, Day 1, 800 mg b.i.d. p.o. (n=12), median, course 1
[18] = po, 800 mg, Day 7, 800 mg b.i.d. p.o. (n=8), mean, course 1
[19] = po, 800 mg, Day 7, 800 mg b.i.d. p.o. (n=8), median, course 1

CC[C@H](CO)Nc1nc(NCc2ccccc2)c2ncn(C(C)C)c2n1 [Seliciclib]
Alterations of retinoblastoma phosphorylation and cyclin D1 levels [1]: not demonstrated; also recorded: No reliably detectable alterations
Bound to plasma proteins [2]: 90%
Inhibition of Cdk4 [3]: only a weak inhibitor
Recommended phase II dose [4]: 2500 mg per day
Preclinical toxicology findings [5]: anaemia, leucocytosis, bone marrow hyperplasia, polydipsia, polyuria and gastric ulceration
Urinary retinol binding protein ([6]; Patient 20, Day 3, 800 mg b.i.d.): 59.2 mg/mol creatinine
Urinary retinol binding protein ([6]; Patient 20, Day 14, 800 mg b.i.d.): 20.8 mg/mol creatinine
Urinary retinol binding protein ([6]; Patient 21, Day 3, 800 mg b.i.d.): 44.7 mg/mol creatinine
Urinary retinol binding protein ([6]; Patient 21, Day 14, 800 mg b.i.d.): 25.7 mg/mol creatinine
Urinary retinol binding protein ([6]; Patient 22, Day 3, 800 mg b.i.d.): 7.9 mg/mol creatinine
Urinary retinol binding protein ([6]; Patient 22, Day 14, 800 mg b.i.d.): 40.1 mg/mol creatinine
mean maximum plasma concentration ([7]; highest dose level (800 mg)): approximately 3 μg ml^−1
Cmax ([7]; oral, 800 mg, 800 mg dose level, read-out: mean Cmax): 3e+06 ng/mL and 10 µM
half-life ([7]; oral, similar in all dose groups, read-out: terminal (elimination) half-life): 2 to 5 h
AUC(0-inf) [7, 8]: 1920 ng·h/mL
AUC(0-t) [7, 8]: 1870 ng·h/mL
Cmax ([7]; po, 100 mg, Day 1, 100 mg b.i.d. p.o. (n=3), mean, course 1, read-out: Cmax): 248 ng/mL
Tmax ([7]; po, 100 mg, Day 1, 100 mg b.i.d. p.o. (n=3), mean, course 1, read-out: Tmax (converted)): 1.87 h
half-life ([7]; po, 100 mg, Day 1, 100 mg b.i.d. p.o. (n=3), mean, course 1, read-out: t1/2): 4.45 h
AUC(0-inf) [7, 9]: 1500 ng·h/mL
AUC(0-t) [7, 9]: 1370 ng·h/mL
Cmax ([7]; po, 100 mg, Day 1, 100 mg b.i.d. p.o. (n=3), median, course 1, read-out: Cmax): 134 ng/mL
Tmax ([7]; po, 100 mg, Day 1, 100 mg b.i.d. p.o. (n=3), median, course 1, read-out: Tmax (converted)): 1.02 h
half-life ([7]; po, 100 mg, Day 1, 100 mg b.i.d. p.o. (n=3), median, course 1, read-out: t1/2): 4.63 h
AUC(0-inf) [7, 10]: 2890 ng·h/mL
AUC(0-t) [7, 10]: 2860 ng·h/mL
Cmax ([7]; po, 100 mg, Day 7, 100 mg b.i.d. p.o. (n=3), mean, course 1, read-out: Cmax): 162 ng/mL
Tmax ([7]; po, 100 mg, Day 7, 100 mg b.i.d. p.o. (n=3), mean, course 1, read-out: Tmax (converted)): 3.17 h
half-life ([7]; po, 100 mg, Day 7, 100 mg b.i.d. p.o. (n=3), mean, course 1, read-out: t1/2): 4.47 h
AUC(0-inf) [7, 11]: 3040 ng·h/mL
AUC(0-t) [7, 11]: 3030 ng·h/mL
Cmax ([7]; po, 100 mg, Day 7, 100 mg b.i.d. p.o. (n=3), median, course 1, read-out: Cmax): 152 ng/mL
Tmax ([7]; po, 100 mg, Day 7, 100 mg b.i.d. p.o. (n=3), median, course 1, read-out: Tmax (converted)): 4 h
half-life ([7]; po, 100 mg, Day 7, 100 mg b.i.d. p.o. (n=3), median, course 1, read-out: t1/2): 3.9 h
AUC(0-inf) [7, 12]: 3030 ng·h/mL
AUC(0-t) [7, 12]: 2770 ng·h/mL
Cmax ([7]; po, 200 mg, Day 1, 200 mg b.i.d. p.o. (n=6), mean, course 1, read-out: Cmax): 179 ng/mL
Tmax ([7]; po, 200 mg, Day 1, 200 mg b.i.d. p.o. (n=6), mean, course 1, read-out: Tmax (converted)): 4.65 h
half-life ([7]; po, 200 mg, Day 1, 200 mg b.i.d. p.o. (n=6), mean, course 1, read-out: t1/2): 2.93 h
AUC(0-inf) [7, 13]: 3840 ng·h/mL
AUC(0-t) [7, 13]: 3080 ng·h/mL
Cmax ([7]; po, 200 mg, Day 1, 200 mg b.i.d. p.o. (n=6), median, course 1, read-out: Cmax): 80 ng/mL
Tmax ([7]; po, 200 mg, Day 1, 200 mg b.i.d. p.o. (n=6), median, course 1, read-out: Tmax (converted)): 2.78 h
half-life ([7]; po, 200 mg, Day 1, 200 mg b.i.d. p.o. (n=6), median, course 1, read-out: t1/2): 2.48 h
AUC(0-inf) [7, 14]: 4250 ng·h/mL
AUC(0-t) [7, 14]: 2930 ng·h/mL
Cmax ([7]; po, 200 mg, Day 7, 200 mg b.i.d. p.o. (n=6), mean, course 1, read-out: Cmax): 310 ng/mL
Tmax ([7]; po, 200 mg, Day 7, 200 mg b.i.d. p.o. (n=6), mean, course 1, read-out: Tmax (converted)): 1.03 h
half-life ([7]; po, 200 mg, Day 7, 200 mg b.i.d. p.o. (n=6), mean, course 1, read-out: t1/2): 13 h
AUC(0-inf) [7, 15]: 3480 ng·h/mL
AUC(0-t) [7, 15]: 3080 ng·h/mL
Cmax ([7]; po, 200 mg, Day 7, 200 mg b.i.d. p.o. (n=6), median, course 1, read-out: Cmax): 303 ng/mL
Tmax ([7]; po, 200 mg, Day 7, 200 mg b.i.d. p.o. (n=6), median, course 1, read-out: Tmax (converted)): 1 h
half-life ([7]; po, 200 mg, Day 7, 200 mg b.i.d. p.o. (n=6), median, course 1, read-out: t1/2): 3.8 h
AUC(0-inf) [7, 16]: 53000 ng·h/mL
AUC(0-t) [7, 16]: 52700 ng·h/mL
Cmax ([7]; po, 800 mg, Day 1, 800 mg b.i.d. p.o. (n=12), mean, course 1, read-out: Cmax): 3200 ng/mL
Tmax ([7]; po, 800 mg, Day 1, 800 mg b.i.d. p.o. (n=12), mean, course 1, read-out: Tmax (converted)): 2.95 h
half-life ([7]; po, 800 mg, Day 1, 800 mg b.i.d. p.o. (n=12), mean, course 1, read-out: t1/2): 3.65 h
AUC(0-inf) [7, 17]: 57500 ng·h/mL
AUC(0-t) [7, 17]: 57400 ng·h/mL
Cmax ([7]; po, 800 mg, Day 1, 800 mg b.i.d. p.o. (n=12), median, course 1, read-out: Cmax): 3160 ng/mL
Tmax ([7]; po, 800 mg, Day 1, 800 mg b.i.d. p.o. (n=12), median, course 1, read-out: Tmax (converted)): 2 h
half-life ([7]; po, 800 mg, Day 1, 800 mg b.i.d. p.o. (n=12), median, course 1, read-out: t1/2): 3.87 h
AUC(0-inf) [7, 18]: 26600 ng·h/mL
AUC(0-t) [7, 18]: 26500 ng·h/mL
Cmax ([7]; po, 800 mg, Day 7, 800 mg b.i.d. p.o. (n=8), mean, course 1, read-out: Cmax): 2770 ng/mL
Tmax ([7]; po, 800 mg, Day 7, 800 mg b.i.d. p.o. (n=8), mean, course 1, read-out: Tmax (converted)): 1.65 h
half-life ([7]; po, 800 mg, Day 7, 800 mg b.i.d. p.o. (n=8), mean, course 1, read-out: t1/2): 3.83 h
AUC(0-inf) [7, 19]: 21300 ng·h/mL
AUC(0-t) [7, 19]: 21300 ng·h/mL
Cmax ([7]; po, 800 mg, Day 7, 800 mg b.i.d. p.o. (n=8), median, course 1, read-out: Cmax): 2640 ng/mL
Tmax ([7]; po, 800 mg, Day 7, 800 mg b.i.d. p.o. (n=8), median, course 1, read-out: Tmax (converted)): 1.78 h
half-life ([7]; po, 800 mg, Day 7, 800 mg b.i.d. p.o. (n=8), median, course 1, read-out: t1/2): 3.48 h
Tmax ([7]; po, all dose levels, oral, read-out: Tmax range (time to peak plasma concentrations)): 1 to 4 h
Tmax ([7]; po, all dose levels, oral, read-out: mean Tmax): 2.55 h
plasma clearance ([7]; patients, oral): greater than liver blood flow
